Reference: US11992493B1, “Use of compound or pharmaceutical derivative thereof in inhibiting CaMK2G protein activity” (priority 2022, dated 2024)

Legend:
[1] = tested on: Il17a, Il17f, Il22, Tnfa and Il23a; experiment: Quantitative PCR of proinflammatory genes in skin of IMQ-induced mice; format: in vivo, mouse; settings: qPCR
Procedure: (§1) DMSO is used to dissolve T2533 powder, the T2533 powder is weighed according to different dosage, and then diluted with β-cyclodextrin, the final concentration of DMSO is not more than 5%. The dose gradient of T2533 is 0 mg/kg, 2.5 mg/kg, 5 mg/kg, and 10 mg/kg. Each mouse is calculated as 20 grams (g), and each mouse needs to be administered 0 mg, 0.05 mg, 0.1 mg, and 0.2 mg per day.
(§2) Seven-week-old C57/BL6 mice are bred and modeled in SPF-level environment. The experimental groups are as follows: (1) applying the skin with imiquimod (IMQ) and 0 mg/kg T2533; (2) applying the skin with IMQ and 2.5 mg/kg T2533; (3) applying the skin with IMQ and 5 mg/kg T2533; (4) applying the skin with IMQ and 10 mg/kg T2533; (5) applying the skin with Vaseline® and 0 mg/kg T2533; (6) applying the skin with Vaseline® and 2.5 mg/kg T2533; (7) applying the skin with Vaseline® and 5 mg/kg T2533; and (8) applying the skin with Vaseline® and 10 mg/kg T2533.
(§3) In each group of 6 mice, the hair on the back of the mice is shaved to make the exposed skin reach 4 square centimeters. The start date of the experiment is set as Day−2, and the end date is set as Day4. From Day−2 to Day3, 200 μL of liquid drug is taken in the morning and evening every day and evenly smeared on the skin of mice until it is absorbed. From Day 0 to Day 3, 62.5 mg IMQ is applied to each mouse at noon of every day. The skin of mice is scored every day, the mice are euthanized on Day 4, and the skin tissues are taken for a series of detection.
(§4) The skin lymphocytes of mice in the above groups are isolated and detected by flow cytometry (i.e., the detection of the proportion of IL17A^+ cells in dermal γδT subsets, the IL17A^+ cells are main effector cells mediated by the CaMK2γ pathway of psoriasis and can secrete a large number of IL-17 cytokines to aggravate psoriasis). […] Quantitative PCR is performed on known proinflammatory genes closely related to psoriasis, including Il17a, Il17f, Il22, Tnfa and Il23a.

[2] = target: T1, CaMK2γ (Homo sapiens, UniProt Q13555); experiment: ADP-Glo Kinase Assay + CaMK2γ Kinase Enzyme System (Promega #V9201); format: biochemical; settings: inhibitor final concentration 10 μM, compared with positive control, p<0.0001
T1 construct: purchased Promega #V9201
T1 sequence (Q13555 whole entry): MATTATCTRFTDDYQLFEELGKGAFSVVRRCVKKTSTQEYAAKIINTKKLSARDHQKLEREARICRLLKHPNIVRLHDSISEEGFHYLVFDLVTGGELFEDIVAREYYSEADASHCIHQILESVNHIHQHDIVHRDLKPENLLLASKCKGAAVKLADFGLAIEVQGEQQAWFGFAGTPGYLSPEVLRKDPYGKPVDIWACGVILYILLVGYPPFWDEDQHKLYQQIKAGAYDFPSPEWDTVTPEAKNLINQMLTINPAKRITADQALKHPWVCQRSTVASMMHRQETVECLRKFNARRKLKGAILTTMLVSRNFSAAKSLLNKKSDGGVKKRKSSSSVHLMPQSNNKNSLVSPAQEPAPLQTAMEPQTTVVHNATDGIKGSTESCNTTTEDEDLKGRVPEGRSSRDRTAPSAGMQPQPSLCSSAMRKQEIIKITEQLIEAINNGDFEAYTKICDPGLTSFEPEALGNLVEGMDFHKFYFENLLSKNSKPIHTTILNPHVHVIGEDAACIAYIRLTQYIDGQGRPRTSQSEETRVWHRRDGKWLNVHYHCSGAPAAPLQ
Procedure: The kinase activity (%) of 130 compounds screened above are detected by ADP-Glo™ Kinase Assay+CaMK2γ Kinase Enzyme System (Promega #V9201), and the evaluation standard is kinase activity (%).
The kinase activity (%) of each well is calculated by the above method.
In the embodiment of the disclosure, the inhibition of T2533 on CaMK2γ protein activity is detected by ADP-Glo™ Kinase Assay+CaMK2 γ Kinase Enzyme System (Promega #V9201), and the specific experimental steps and settings are as follows.
(1) well setting: 2 blank wells, 2 normal reaction wells, 2 dimethyl sulfoxide (DMSO) control wells, 40 inhibitor wells with 2 plex wells for each inhibitor and 20 inhibitors. There are 46 wells in total.
(2) preparation of a kinase reaction reagent: • (a) preparation of 200 […] 4× Kinase Buffer is as shown in Table 5 below. 175 μL of the 4× Kinase Buffer is required for a single experiment, that is, 2.5*20+62.5+62.5=175 μL. The rest is prepared into 1× Kinase Buffer and used as blank well.
• (b) preparation of 10 μL 5× inhibitor solution (final concentration is 10 micromoles per liter abbreviated μM), and 2.5 μL/well. Specifically, the inhibitor is 10 millimoles per liter abbreviated mM, diluted to 1 mM with DMSO in a ratio of 1:9; the preparation method of DMSO is the same as that of inhibitor, which is used as the DMSO control well, as shown in Table 6 below. […]

[3] = target: T2, human-derived CaMK2γ protein (Homo sapiens, UniProt Q13555); experiment: SPR (Biacore, CM5 chip amine-coupling) affinity to human-derived CaMK2γ protein; settings: human-derived full-length CaMK2γ protein, read-out: binding constant
T2 construct: a pET28A vector is firstly used to express and purify the human-derived full-length CaMK2γ protein; made in house; host or cells: pET28A vector
T2 sequence (Q13555 whole entry): as above
Procedure: (§5) In the embodiment of the disclosure, the affinity between T2533 and human-derived CaMK2γ protein are detected. Specifically, a pET28A vector is firstly used to express and purify the human-derived full-length CaMK2γ protein. Subsequently, the affinity is determined by the surface plasmon resonance (SPR) method of Biacore™ using a CM5 chip amine-coupling.

[4] = tested on: IMQ-induced mice; experiment: IMQ-induced psoriatic mouse model: PASI score, erythema, scaling, skin thickness, skin phenotype; format: in vivo; settings: smeared on skin, Day−2 to Day3
Procedure: as §1, §2, §3
The PASI score results and the corresponding score results of erythema, scaling, and skin thickness of the above IMQ modelled mice are shown in FIG. 9, FIG. 10, FIG. 11, and FIG. 12, respectively. The skin phenotypes and skin pathological phenotypes are shown in FIG. 13 and FIG. 14, respectively.

[5] = target: T3, mouse-derived CaMK2γ protein (Mus musculus, UniProt Q923T9); experiment: SPR (Biacore, CM5 chip amine-coupling) affinity to mouse-derived CaMK2γ protein; settings: mouse-derived full-length CaMK2γ protein, read-out: binding constant
T3 construct: a pET28A vector is firstly used to express and purify the mouse-derived full-length CaMK2γ protein; made in house; host or cells: pET28A vector
T3 sequence (Q923T9 whole entry): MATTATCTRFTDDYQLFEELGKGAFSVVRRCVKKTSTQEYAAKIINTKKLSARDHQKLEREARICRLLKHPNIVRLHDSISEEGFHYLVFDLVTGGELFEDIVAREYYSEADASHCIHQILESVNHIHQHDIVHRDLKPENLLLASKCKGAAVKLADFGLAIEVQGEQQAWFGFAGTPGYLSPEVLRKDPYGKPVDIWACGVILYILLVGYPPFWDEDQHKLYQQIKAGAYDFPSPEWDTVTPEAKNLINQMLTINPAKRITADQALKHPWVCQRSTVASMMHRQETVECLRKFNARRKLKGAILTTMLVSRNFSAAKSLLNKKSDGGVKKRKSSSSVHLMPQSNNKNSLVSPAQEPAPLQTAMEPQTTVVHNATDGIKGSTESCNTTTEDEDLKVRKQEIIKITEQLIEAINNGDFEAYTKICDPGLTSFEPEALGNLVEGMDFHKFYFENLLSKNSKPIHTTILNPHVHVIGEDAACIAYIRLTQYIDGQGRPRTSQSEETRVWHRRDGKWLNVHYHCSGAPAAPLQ
Procedure: as §5, with “mouse-derived” for “human-derived”, “SPR” for “surface plasmon resonance (SPR)”

[6] = tested on: IL17A^+ cells in dermal γδT subsets; experiment: Flow cytometry of skin lymphocytes of IMQ-induced mice; format: in vivo, mouse; settings: 5 mg/kg; compared with IMQ-induced mice without T2533
Procedure: as §1
Seven-week-old C57/BL6 mice are bred and modeled in SPF-level environment. […]
In each group of 6 mice, the hair on the back of the mice is shaved to make the exposed skin reach 4 square centimeters. […] The skin of mice is scored every day, the mice are euthanized on Day 4, and the skin tissues are taken for a series of detection.
as §4

`CN1CCC(=C2c3ccccc3CCn3c(C=O)cnc32)CC1` [T2533, Alcaftadine] was tested, and the “expression of Il17a in the skin” value ([1]; 2.5 mg/kg) was “decrease significantly”, the “expression of Il17f in the skin” value ([1]; 2.5 mg/kg) was “decrease significantly” and the “expression of Il22 in the skin” value ([1]; 2.5 mg/kg) was “unchanged”. For the same compound, the “expression of Il23a in the skin” value ([1]; 2.5 mg/kg) was “unchanged”, the “expression of Tnfa in the skin” value ([1]; 2.5 mg/kg) was “unchanged” and the “expression of Il17a in the skin” value ([1]; 5 mg/kg) was “decrease significantly”. The “expression of Il17f in the skin” value ([1]; 5 mg/kg) was “decrease significantly”, the “expression of Il22 in the skin” value ([1]; 5 mg/kg) was “unchanged” and the “expression of Il23a in the skin” value ([1]; 5 mg/kg) was “decrease significantly”. The “expression of Tnfa in the skin” value ([1]; 5 mg/kg) was “decrease significantly”, the “inhibition effect on kinase activity (%)” value [2] was “effectively reduce the expression of CaMK2γ protein” and the “inhibition effect on kinase activity (%)” value ([2]; listed as compound I) was “most significant inhibition effect”. The Kd [3] was 25.4 µM, the “inflammatory phenotype of IMQ-induced mice” value (from here on “inflammatory phenotype”) ([4]; 2.5 mg/kg) was “reduces the inflammatory phenotype” and the “inflammatory phenotype” value ([4]; 5 mg/kg) was “most significant”. For the same compound, the “inflammatory phenotype” value ([4]; 10 mg/kg) was “reduces the inflammatory phenotype”, the Kd [5] was 68.4 µM and the “proportion of IL-17A^+ cells in dermal γδT subsets” value [6] was “significantly reduced”.
